≈ marks a conversion by molar mass, not a printed value. One block for each compound: values may come before it. Calls of active or inactive are those of the source. No cut-off for these calls is given here.
Legend:
[1] = target: Mitogen-activated protein kinase kinase kinase 14 (Homo sapiens, UniProt Q99558, S549D); experiment: Inhibition of His6-tagged human NIK (330 to 680 residues) S549D mutant expressed in baculovirus-infected Sf9 cells incubated for 30 mins in presence of ATP by ADP-GloTM assay
Z-138 = experiment: Antiproliferative activity against NIK-activated human Z138 cells assessed as inhibition of cell growth incubated for 72 hrs by XTT assay; assay type: functional
MCF7 = experiment: Antiproliferative activity against NIK-independent human MCF7 cells assessed as inhibition of cell growth incubated for 72 hrs by XTT assay; assay type: functional
Maver1 = experiment: Antiproliferative activity against NIK-activated human MAVER-1 cells assessed as inhibition of cell growth incubated for 72 hrs by XTT assay; assay type: functional
JIM3 (Homo sapiens) = experiment: Antiproliferative activity against NIK-independent human JIM3 cells assessed as inhibition of cell growth incubated for 72 hrs by XTT assay; conditions: JIM3, 72 h
[2] = target: Mitogen-activated protein kinase kinase kinase 14 (Homo sapiens) (UniProt Q99558); experiment: Covalent binding affinity to NIK (unknown origin) assessed as labeling at Cys444 residue using Ala438-Arg451 peptide incubated for 18 hrs measured after tryptic digestion by MS/MS fragmentation spectral analysis
[3] = target: Receptor-interacting serine/threonine-protein kinase 2 (Homo sapiens) (UniProt O43353); experiment: Inhibition of RIPK2 (unknown origin) at 1 uM relative to control
[4] = Apparent permeability across basolateral to apical side in human Caco-2 cells; assay type: ADME, cell-based
[5] = target: Serine/threonine-protein kinase SIK2 (Homo sapiens) (UniProt Q9H0K1); experiment: Inhibition of SIK2 (unknown origin) at 1 uM relative to control
[6] = Intrinsic clearance in rat hepatocytes measured per million of cells; assay type: ADME, cell-based, Hepatocyte; conditions: read-out: CLH
[7] = target: T1, Mitogen-activated protein kinase kinase kinase 7 (Homo sapiens) (UniProt O43318); experiment: Inhibition of TAK1 (unknown origin) at 1 uM relative to control
T1 sequence (whole entry): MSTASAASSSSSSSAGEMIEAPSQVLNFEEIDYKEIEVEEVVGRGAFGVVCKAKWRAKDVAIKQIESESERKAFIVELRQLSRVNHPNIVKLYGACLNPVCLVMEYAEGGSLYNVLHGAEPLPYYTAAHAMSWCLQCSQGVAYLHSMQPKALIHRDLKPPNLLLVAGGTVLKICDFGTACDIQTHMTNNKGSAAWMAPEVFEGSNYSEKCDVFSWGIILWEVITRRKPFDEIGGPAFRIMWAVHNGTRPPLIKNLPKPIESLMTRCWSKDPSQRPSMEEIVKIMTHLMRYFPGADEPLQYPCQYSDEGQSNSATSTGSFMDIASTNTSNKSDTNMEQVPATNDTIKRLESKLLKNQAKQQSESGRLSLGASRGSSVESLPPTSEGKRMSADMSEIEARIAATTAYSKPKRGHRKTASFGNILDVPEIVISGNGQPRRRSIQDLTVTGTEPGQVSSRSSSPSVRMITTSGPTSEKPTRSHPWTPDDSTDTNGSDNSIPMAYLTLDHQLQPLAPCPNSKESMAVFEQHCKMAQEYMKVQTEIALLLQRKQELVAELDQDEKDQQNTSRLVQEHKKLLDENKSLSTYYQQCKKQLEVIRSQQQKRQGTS

[8] = target: T2, Serine/threonine-protein kinase Sgk1 (Homo sapiens) (UniProt O00141); experiment: Inhibition of SGK1 (unknown origin) at 1 uM relative to control
T2 sequence (whole entry): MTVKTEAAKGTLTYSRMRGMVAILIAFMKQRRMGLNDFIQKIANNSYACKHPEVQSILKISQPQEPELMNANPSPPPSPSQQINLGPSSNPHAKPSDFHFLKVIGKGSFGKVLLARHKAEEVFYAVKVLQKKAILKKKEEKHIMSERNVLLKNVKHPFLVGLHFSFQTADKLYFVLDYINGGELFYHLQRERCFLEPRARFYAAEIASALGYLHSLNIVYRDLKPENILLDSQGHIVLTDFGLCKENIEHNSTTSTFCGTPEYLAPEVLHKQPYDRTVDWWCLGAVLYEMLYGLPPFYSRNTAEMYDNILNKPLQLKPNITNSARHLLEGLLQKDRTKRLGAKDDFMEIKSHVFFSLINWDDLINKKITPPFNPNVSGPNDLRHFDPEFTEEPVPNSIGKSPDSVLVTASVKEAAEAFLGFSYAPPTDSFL

[9] = Lipophilicity, log D of the compound at pH 7.4; assay type: physicochemical; conditions: buffer
[10] = target: Platelet-derived growth factor receptor alpha (Homo sapiens) (UniProt P16234); experiment: Inhibition of PDGFRA (unknown origin) at 1 uM relative to control
Homo sapiens = species on record: Homo sapiens; experiment: Inhibition of VEGFR (unknown origin) at 1 uM relative to control
[11] = Apparent permeability across apical to basolateral side in human Caco-2 cells; assay type: ADME, cell-based
[12] = target: Aurora kinase B (Homo sapiens) (UniProt Q96GD4); experiment: Inhibition of Aurora B (unknown origin) at 1 uM relative to control
[13] = target: Tyrosine-protein kinase BTK (Homo sapiens) (UniProt Q06187); experiment: Inhibition of BTK (unknown origin) at 1 uM relative to control
[14] = target: Mitogen-activated protein kinase kinase kinase 9 (Homo sapiens) (UniProt P80192); experiment: Inhibition of MLK1 (unknown origin) at 1 uM relative to control
[15] = target: Receptor tyrosine-protein kinase erbB-4 (Homo sapiens) (UniProt Q15303); experiment: Inhibition of HER4 (unknown origin) at 1 uM relative to control
[16] = Intrinsic clearance in human hepatocytes measured per million of cells; assay type: ADME, cell-based, Hepatocyte; conditions: read-out: CLH
[17] = target: Mitogen-activated protein kinase kinase kinase 14 (Homo sapiens) (UniProt Q99558); experiment: Covalent binding affinity to NIK (unknown origin) assessed as protein-compound adduct formation by measuring increase in 330Da mass at 100 uM incubated for 6 hrs by mass spectrometry
[18] = Solubility of the compound; assay type: physicochemical

Sequence of Mitogen-activated protein kinase kinase kinase 14 (Q99558 whole entry S549D, the tested form may be a part): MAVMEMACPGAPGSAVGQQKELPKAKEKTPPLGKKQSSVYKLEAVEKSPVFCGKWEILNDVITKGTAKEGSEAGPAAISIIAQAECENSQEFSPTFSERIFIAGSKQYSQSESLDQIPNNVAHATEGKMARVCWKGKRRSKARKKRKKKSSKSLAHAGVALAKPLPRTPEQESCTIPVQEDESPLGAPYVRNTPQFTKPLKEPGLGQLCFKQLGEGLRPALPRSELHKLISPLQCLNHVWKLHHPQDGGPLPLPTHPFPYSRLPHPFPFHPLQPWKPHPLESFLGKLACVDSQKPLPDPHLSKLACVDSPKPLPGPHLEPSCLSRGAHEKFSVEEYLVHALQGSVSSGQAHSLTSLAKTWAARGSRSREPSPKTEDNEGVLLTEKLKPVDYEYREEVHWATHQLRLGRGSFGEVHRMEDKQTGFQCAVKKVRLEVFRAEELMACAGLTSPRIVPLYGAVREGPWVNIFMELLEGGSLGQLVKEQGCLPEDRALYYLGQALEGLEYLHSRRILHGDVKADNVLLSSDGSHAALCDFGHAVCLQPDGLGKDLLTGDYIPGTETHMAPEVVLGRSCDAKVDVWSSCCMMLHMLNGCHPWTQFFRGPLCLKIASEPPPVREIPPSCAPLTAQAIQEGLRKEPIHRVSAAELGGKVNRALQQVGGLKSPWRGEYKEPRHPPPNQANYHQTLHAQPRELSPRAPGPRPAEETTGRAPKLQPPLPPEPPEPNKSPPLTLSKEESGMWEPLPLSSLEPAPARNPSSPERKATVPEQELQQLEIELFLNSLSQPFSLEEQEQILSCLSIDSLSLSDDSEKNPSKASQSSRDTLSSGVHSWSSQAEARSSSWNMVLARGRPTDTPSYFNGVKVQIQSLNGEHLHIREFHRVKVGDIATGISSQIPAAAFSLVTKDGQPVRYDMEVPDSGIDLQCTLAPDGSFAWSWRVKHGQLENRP
Sequence of Mitogen-activated protein kinase kinase kinase 14 (Homo sapiens) (Q99558 whole entry, looked up, the tested form may be a part): as the sequence (Q99558 whole entry S549D, the tested form may be a part) above, with D549S counted along it
Sequence of Platelet-derived growth factor receptor alpha (Homo sapiens) (P16234 whole entry): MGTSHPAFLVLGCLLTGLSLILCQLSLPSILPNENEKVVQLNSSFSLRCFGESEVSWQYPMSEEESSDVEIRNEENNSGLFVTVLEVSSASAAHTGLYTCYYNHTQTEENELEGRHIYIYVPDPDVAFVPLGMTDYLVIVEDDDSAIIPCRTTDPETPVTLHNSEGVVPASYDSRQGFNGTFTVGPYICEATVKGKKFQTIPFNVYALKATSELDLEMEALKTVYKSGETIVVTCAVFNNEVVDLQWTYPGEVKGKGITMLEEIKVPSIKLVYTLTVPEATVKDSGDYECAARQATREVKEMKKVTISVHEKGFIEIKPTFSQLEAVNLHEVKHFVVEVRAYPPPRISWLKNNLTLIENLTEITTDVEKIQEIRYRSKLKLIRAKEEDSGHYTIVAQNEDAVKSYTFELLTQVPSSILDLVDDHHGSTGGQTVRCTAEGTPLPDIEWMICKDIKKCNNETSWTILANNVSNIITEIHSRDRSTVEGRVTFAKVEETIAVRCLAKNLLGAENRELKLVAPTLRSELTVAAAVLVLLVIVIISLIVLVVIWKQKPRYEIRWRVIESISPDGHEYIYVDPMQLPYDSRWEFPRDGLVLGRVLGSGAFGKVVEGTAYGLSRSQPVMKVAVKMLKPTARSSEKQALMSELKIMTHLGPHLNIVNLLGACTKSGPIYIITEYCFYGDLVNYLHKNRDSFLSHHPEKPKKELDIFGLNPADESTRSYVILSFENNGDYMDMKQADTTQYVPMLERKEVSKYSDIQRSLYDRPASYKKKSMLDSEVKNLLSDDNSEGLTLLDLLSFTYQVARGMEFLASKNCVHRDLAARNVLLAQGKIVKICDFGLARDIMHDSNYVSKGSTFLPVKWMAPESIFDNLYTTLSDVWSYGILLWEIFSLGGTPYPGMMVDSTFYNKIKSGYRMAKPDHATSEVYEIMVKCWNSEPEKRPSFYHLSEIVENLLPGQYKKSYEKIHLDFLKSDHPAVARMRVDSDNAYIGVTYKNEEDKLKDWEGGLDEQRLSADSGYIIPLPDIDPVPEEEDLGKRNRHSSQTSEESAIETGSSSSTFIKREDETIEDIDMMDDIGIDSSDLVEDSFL
Sequence of Receptor-interacting serine/threonine-protein kinase 2 (Homo sapiens) (O43353 whole entry): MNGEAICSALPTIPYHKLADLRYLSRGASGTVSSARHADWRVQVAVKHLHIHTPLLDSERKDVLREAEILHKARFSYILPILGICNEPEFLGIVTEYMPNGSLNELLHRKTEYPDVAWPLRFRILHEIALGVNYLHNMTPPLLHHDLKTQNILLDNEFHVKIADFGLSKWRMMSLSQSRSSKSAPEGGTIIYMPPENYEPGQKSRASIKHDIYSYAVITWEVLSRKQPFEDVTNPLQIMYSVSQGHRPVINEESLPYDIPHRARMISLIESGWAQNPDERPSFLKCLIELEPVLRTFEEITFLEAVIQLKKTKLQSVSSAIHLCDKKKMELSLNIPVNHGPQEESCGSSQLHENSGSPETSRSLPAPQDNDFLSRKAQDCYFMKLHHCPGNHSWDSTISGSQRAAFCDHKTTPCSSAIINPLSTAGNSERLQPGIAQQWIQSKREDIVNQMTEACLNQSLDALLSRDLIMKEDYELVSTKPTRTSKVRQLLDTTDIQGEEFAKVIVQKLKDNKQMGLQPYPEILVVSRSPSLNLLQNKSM
Sequence of Tyrosine-protein kinase BTK (Homo sapiens) (Q06187 whole entry): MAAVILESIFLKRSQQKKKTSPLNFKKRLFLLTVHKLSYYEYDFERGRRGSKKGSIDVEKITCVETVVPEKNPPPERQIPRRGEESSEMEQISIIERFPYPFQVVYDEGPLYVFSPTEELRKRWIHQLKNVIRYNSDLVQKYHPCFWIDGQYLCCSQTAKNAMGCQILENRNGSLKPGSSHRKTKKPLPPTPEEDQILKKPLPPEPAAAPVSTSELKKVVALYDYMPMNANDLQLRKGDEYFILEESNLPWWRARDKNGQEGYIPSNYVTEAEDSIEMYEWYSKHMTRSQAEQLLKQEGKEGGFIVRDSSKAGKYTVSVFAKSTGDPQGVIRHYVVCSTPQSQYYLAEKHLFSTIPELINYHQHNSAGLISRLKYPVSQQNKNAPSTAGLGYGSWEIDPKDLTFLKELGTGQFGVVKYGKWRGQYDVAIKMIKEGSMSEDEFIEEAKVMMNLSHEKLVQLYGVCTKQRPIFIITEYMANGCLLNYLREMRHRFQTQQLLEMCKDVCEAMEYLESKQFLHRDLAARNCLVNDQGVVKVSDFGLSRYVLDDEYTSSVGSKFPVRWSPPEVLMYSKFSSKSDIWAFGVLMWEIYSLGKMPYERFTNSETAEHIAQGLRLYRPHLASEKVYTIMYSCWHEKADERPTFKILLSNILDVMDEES
Sequence of Receptor tyrosine-protein kinase erbB-4 (Homo sapiens) (Q15303 whole entry): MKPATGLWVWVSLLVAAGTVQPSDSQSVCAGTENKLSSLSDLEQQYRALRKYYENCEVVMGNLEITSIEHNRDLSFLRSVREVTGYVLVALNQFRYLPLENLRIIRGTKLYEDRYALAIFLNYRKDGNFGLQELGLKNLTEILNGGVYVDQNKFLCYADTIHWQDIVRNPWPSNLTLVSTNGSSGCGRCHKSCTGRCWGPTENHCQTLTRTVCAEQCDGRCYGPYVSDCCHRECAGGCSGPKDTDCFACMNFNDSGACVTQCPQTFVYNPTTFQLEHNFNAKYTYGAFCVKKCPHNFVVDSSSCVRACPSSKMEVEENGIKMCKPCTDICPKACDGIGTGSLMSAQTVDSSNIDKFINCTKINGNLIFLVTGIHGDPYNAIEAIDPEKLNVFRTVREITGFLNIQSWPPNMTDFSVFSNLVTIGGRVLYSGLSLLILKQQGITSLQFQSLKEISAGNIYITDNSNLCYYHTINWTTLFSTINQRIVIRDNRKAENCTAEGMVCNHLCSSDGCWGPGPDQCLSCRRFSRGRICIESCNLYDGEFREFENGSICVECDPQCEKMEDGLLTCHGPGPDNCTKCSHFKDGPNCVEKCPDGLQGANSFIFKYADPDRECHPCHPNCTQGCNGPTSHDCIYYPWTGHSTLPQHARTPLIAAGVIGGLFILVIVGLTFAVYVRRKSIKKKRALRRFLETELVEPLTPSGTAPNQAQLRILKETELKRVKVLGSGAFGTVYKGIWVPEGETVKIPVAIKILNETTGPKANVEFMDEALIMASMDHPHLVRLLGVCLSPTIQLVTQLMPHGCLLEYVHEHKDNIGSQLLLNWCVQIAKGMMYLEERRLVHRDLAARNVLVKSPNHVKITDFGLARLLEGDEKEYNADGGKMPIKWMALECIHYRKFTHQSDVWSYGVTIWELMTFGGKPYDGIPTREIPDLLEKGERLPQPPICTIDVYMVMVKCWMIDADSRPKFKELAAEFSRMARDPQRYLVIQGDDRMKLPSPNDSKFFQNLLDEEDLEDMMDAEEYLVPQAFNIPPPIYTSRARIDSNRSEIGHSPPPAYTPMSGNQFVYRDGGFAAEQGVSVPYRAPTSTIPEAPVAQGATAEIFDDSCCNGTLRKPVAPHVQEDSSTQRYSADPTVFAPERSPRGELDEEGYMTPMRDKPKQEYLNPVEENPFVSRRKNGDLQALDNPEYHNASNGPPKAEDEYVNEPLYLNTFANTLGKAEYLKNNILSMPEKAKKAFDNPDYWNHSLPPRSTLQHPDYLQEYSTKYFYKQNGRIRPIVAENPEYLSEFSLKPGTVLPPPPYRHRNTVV
Sequence of Aurora kinase B (Homo sapiens) (Q96GD4 whole entry): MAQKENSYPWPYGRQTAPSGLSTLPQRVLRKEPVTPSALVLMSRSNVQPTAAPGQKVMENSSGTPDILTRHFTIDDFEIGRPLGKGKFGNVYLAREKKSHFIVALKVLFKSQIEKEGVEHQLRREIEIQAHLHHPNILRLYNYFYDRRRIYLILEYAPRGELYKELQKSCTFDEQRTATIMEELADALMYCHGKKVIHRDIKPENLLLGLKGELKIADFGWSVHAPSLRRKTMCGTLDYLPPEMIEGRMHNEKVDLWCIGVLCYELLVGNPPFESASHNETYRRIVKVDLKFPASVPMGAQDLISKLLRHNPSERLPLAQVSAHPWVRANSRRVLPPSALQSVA

Structure (SMILES): C=Cc1ccc(C#Cc2ccc3ncn(-c4ccnc(N)n4)c3c2)cn1
IC50 [1]: 79.4 µM

Structure (SMILES): C=Cc1ccnc(C#Cc2ccc3ncn(-c4ccnc(N)n4)c3c2)n1
GI50 (Z-138): 1 µM | GI50 (MCF7): 0.631 µM | IC50 [1]: 1.58 µM | GI50 (Maver1): 1.26 µM | GI50 (JIM3 (Homo sapiens)): 1.58 µM

Structure (SMILES): C#Cc1ccnc(C#Cc2ccc3ncn(-c4ccnc(N)n4)c3c2)c1
GI50 (Z-138): 7.94 µM | GI50 (MCF7): > 10 µM | IC50 [1]: 0.316 µM | GI50 (Maver1): 10 µM | GI50 (JIM3 (Homo sapiens)): > 7.94 µM

Structure (SMILES): CCc1ccc2ncn(-c3ccnc(N)n3)c2c1
IC50 [1]: 79.4 µM

Structure (SMILES): C=Cc1cc(C#Cc2ccc3ncn(-c4ccnc(N)n4)c3c2)ccn1
IC50 [1]: 20 µM

Structure (SMILES): Cc1ccnc(C#Cc2ccc3ncn(-c4ccnc(N)n4)c3c2)n1
IC50 [1]: 1.58 µM

Structure (SMILES): C#Cc1cncc(C#Cc2ccc3ncn(-c4ccnc(N)n4)c3c2)n1
IC50 [1]: 6.31 µM

Structure (SMILES): C#Cc1cc(C#Cc2ccc3ncn(-c4ccnc(N)n4)c3c2)ccn1
IC50 [1]: 31.6 µM

Structure (SMILES): C#Cc1cccc(C#Cc2ccc3ncn(-c4ccnc(N)n4)c3c2)n1
IC50 [1]: 3.16 µM

Structure (SMILES): C=Cc1nccc(C#Cc2ccc3ncn(-c4ccnc(N)n4)c3c2)n1
IC50 [1]: 39.8 µM

Structure (SMILES): C=CC(=O)NCCCCc1ccc2ncn(-c3ccnc(N)n3)c2c1
IC50 [1]: 501 µM

Structure (SMILES): C#Cc1ncc(C#Cc2ccc3ncn(-c4ccnc(N)n4)c3c2)cn1
IC50 [1]: 79.4 µM

Structure (SMILES): C#Cc1cnc(C#Cc2ccc3ncn(-c4ccnc(N)n4)c3c2)nc1
IC50 [1]: 25.1 µM

Structure (SMILES): C=CC(=O)NCC#Cc1ccc2ncn(-c3ccnc(N)n3)c2c1
IC50 [1]: 6.31 µM

Structure (SMILES): C=Cc1ccnc(C#Cc2ccc3ncn(-c4ccnc(N)n4)c3c2)c1
GI50 (Z-138): 0.398 µM | GI50 (MCF7): 1.26 µM | IC50 [1]: 1.58 µM | GI50 (Maver1): 0.501 µM | GI50 (JIM3 (Homo sapiens)): 1.58 µM

Structure (SMILES): C#Cc1nccc(C#Cc2ccc3ncn(-c4ccnc(N)n4)c3c2)n1
IC50 [1]: 39.8 µM

Structure (SMILES): C#Cc1cc(C#Cc2ccc3ncn(-c4ccnc(N)n4)c3c2)ncn1
IC50 [1]: 50.1 µM

Structure (SMILES): C#Cc1ccc2ncn(-c3ccnc(N)n3)c2c1
IC50 [1]: 0.251 µM

Structure (SMILES): CC(=O)NCCCc1ccc2ncn(-c3ccnc(N)n3)c2c1
IC50 [1]: > 100 µM

Structure (SMILES): C#Cc1cncc(C#Cc2ccc3ncn(-c4ccnc(N)n4)c3c2)c1
IC50 [1]: 63.1 µM

Structure (SMILES): CC(O)(C#Cc1ccc2c(c1)N(c1nc(N)ncc1Cl)CC2)c1nccs1 (stereo not drawn)
IC50 [1]: 0.00398 µM

Structure (SMILES): C=CC(=O)NCCCc1ccc2ncn(-c3ccnc(N)n3)c2c1
IC50 [1]: 501 µM

Structure (SMILES): C#Cc1ccnc(C#Cc2ccc3ncn(-c4ccnc(N)n4)c3c2)n1
Activity [2]: Active | GI50 (Z-138): 0.631 µM | inhibition [3]: > 50% | Papp B→A [4]: 0.22 ×10⁻⁶ cm/s | inhibition [5]: > 50% | hepatocyte CLint [6]: 915 µL/min/1e6 cells | inhibition [7]: > 50% | inhibition [8]: > 50% | logD [9]: 2.8 | inhibition [10]: > 50% | inhibition (Homo sapiens): > 50% | GI50 (MCF7): 0.501 µM | Papp A→B [11]: 0.33 ×10⁻⁶ cm/s | IC50 [1]: 0.2 µM | GI50 (Maver1): 0.398 µM | inhibition [12]: > 50% | inhibition [13]: > 50% | inhibition [14]: > 50% | GI50 (JIM3 (Homo sapiens)): 0.501 µM | inhibition [15]: > 50% | hepatocyte CLint [16]: 382 µL/min/1e6 cells | Activity [17]: Active | solubility [18]: 3.8 µM (≈ 1.28 µg/mL)

GI50 (MCF7): > 31.6 µM
Structure (SMILES): COc1cc(C(N)=O)nc(-c2cccc(C#C[C@]3(O)CCN(C)C3=O)c2)c1
GI50 (Z-138): 20 µM | GI50 (Maver1): 3.98 µM | GI50 (JIM3 (Homo sapiens)): > 31.6 µM

Structure (SMILES): CC(=O)NCCCCc1ccc2ncn(-c3ccnc(N)n3)c2c1
IC50 [1]: 398 µM

Structure (SMILES): COCCOc1cnc(N)nc1-c1c[nH]c2ccc(C#CC(C)(C)O)cc12
IC50 [1]: 0.0398 µM

Source: ChEMBL document CHEMBL5149995, “An Alkynylpyrimidine-Based Covalent Inhibitor That Targets a Unique Cysteine in NF-κB-Inducing Kinase” (J Med Chem, 2021)
